Assay results reported in ChEMBL document CHEMBL4052689, “Discovery and optimization of 3-(4-aryl/heteroarylsulfonyl)piperazin-1-yl)-6-(piperidin-1-yl)pyridazines as novel, CNS penetrant pan-muscarinic antagonists” (Bioorg Med Chem Lett, 2017).
One block for each molecule: values may come before it. Active and inactive are the calls of the source. The calls are words filed in the database; no cut-off is given here.

How the values were obtained:
[1] = biological target: T1, Muscarinic acetylcholine receptor M4 (Homo sapiens) (UniProt P08173); assay: Antagonist activity at human recombinant muscarinic M4 receptor expressed in CHO cells co-transfected with Gqi5 assessed as acetylcholine-induced response in presence of EC80 acetylcholine by calcium mobilization assay relative to untreated control; type: functional, cell-based; parameters: scale not given: the % may be the effect or the level left
T1 sequence (whole entry): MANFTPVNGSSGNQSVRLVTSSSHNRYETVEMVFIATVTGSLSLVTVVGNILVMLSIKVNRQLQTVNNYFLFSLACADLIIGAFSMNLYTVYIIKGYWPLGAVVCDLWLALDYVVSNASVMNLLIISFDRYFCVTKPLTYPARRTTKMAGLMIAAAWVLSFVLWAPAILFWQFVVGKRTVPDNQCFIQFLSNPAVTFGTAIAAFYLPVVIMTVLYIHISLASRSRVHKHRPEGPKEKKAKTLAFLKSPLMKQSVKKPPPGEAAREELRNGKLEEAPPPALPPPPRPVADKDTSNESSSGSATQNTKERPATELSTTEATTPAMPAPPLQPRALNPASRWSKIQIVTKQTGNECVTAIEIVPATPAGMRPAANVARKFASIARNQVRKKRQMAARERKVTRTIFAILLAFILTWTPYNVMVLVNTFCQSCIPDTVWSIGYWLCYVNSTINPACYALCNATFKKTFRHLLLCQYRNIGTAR

[2] = biological target: T2, Muscarinic acetylcholine receptor M3 (Homo sapiens, UniProt P20309); assay: Antagonist activity at human recombinant muscarinic M3 receptor expressed in CHO cells assessed as acetylcholine-induced response in presence of EC80 acetylcholine by calcium mobilization assay relative to untreated control; parameters: scale not given: the % may be the effect or the level left
Target sequence in this assay (P20309 whole entry, looked up): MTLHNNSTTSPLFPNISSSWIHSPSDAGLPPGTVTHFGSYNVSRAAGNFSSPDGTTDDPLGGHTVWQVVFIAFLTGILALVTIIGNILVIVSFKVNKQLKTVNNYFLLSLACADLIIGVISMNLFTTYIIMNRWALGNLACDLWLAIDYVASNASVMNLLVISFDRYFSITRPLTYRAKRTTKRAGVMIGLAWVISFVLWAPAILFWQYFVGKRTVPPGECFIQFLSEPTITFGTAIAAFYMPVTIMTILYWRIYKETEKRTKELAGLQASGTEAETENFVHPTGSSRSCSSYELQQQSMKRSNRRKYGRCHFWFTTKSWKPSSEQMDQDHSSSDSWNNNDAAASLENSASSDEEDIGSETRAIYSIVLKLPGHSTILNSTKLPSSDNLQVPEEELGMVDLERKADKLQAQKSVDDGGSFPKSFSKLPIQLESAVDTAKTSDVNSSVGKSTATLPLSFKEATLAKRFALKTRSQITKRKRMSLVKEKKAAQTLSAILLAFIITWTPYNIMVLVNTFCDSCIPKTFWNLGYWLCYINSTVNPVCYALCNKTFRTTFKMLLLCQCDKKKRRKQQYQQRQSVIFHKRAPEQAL

[3] = biological target: Muscarinic acetylcholine receptor M1 (Homo sapiens, UniProt P11229); assay: Antagonist activity at human recombinant muscarinic M1 receptor expressed in CHO cells co-transfected with Gqi5 in presence of EC80 acetylcholine by calcium mobilization assay; type: functional, cell-based
[4] = biological target: Muscarinic acetylcholine receptor M4 (Rattus norvegicus) (UniProt P08485); assay: (§1) Antagonist activity at rat muscarinic M4 receptor by calcium mobilization assay; type: functional
[5] = biological target: Muscarinic acetylcholine receptor M2 (Homo sapiens, UniProt P08172); assay: Antagonist activity at human recombinant muscarinic M2 receptor expressed in CHO cells co-transfected with Gqi5 in presence of EC80 acetylcholine by calcium mobilization assay; type: functional, cell-based
[6] = biological target: T3, Muscarinic acetylcholine receptor M4 (Homo sapiens, UniProt P08173); assay: Antagonist activity at human recombinant muscarinic M4 receptor expressed in CHO cells co-transfected with Gqi5 in presence of EC80 acetylcholine by calcium mobilization assay; type: functional, cell-based
T3 sequence (P08173 whole entry): T1 sequence (whole entry)

[7] = biological target: T2, Muscarinic acetylcholine receptor M3; assay: Antagonist activity at human recombinant muscarinic M3 receptor expressed in CHO cells co-transfected with Gqi5 in presence of EC80 acetylcholine by calcium mobilization assay; type: functional, cell-based
Target sequence in this assay (P20309 whole entry): as the sequence (P20309 whole entry, looked up) above

[8] = biological target: Muscarinic acetylcholine receptor M5 (Homo sapiens) (UniProt P08912); assay: Antagonist activity at human recombinant muscarinic M5 receptor expressed in CHO cells co-transfected with Gqi5 assessed as acetylcholine-induced response in presence of EC80 acetylcholine by calcium mobilization assay relative to untreated control; type: functional, cell-based; parameters: scale not given: the % may be the effect or the level left
[9] = biological target: Muscarinic acetylcholine receptor M2 (Homo sapiens) (UniProt P08172); assay: Antagonist activity at human recombinant muscarinic M2 receptor expressed in CHO cells co-transfected with Gqi5 assessed as acetylcholine-induced response in presence of EC80 acetylcholine by calcium mobilization assay relative to untreated control; type: functional, cell-based; parameters: scale not given: the % may be the effect or the level left
[10] = biological target: Muscarinic acetylcholine receptor M5 (Rattus norvegicus) (UniProt P08911); assay: Antagonist activity at rat muscarinic M5 receptor assessed as acetylcholine-induced response by calcium mobilization assay; type: functional; parameters: Activity: scale not given: the % may be the effect or the level left
[11] = biological target: Muscarinic acetylcholine receptor M1 (Homo sapiens) (UniProt P11229); assay: Antagonist activity at human recombinant muscarinic M1 receptor expressed in CHO cells co-transfected with Gqi5 assessed as acetylcholine-induced response in presence of EC80 acetylcholine by calcium mobilization assay relative to untreated control; type: functional, cell-based; parameters: scale not given: the % may be the effect or the level left
[12] = biological target: Muscarinic acetylcholine receptor M3 (Rattus norvegicus) (UniProt P08483); assay: (§2) Antagonist activity at rat muscarinic M3 receptor by calcium mobilization assay; type: functional
[13] = Brain to plasma permeability coefficient in rat dosed as cassette dosing; type: ADME, organism-based
[14] = biological target: Muscarinic acetylcholine receptor M5 (Homo sapiens, UniProt P08912); assay: Antagonist activity at human recombinant muscarinic M5 receptor expressed in CHO cells co-transfected with Gqi5 in presence of EC80 acetylcholine by calcium mobilization assay; type: functional, cell-based
[15] = biological target: T3, Muscarinic acetylcholine receptor M4; assay: Displacement of [3H]NMS from human recombinant muscarinic M4 receptor expressed in CHO cell membranes
[16] = Unbound brain-to-plasma concentration ratio in rat dosed as cassette dosing; type: ADME, organism-based
Plasma [17] = assay: Protein binding in human plasma assessed as unbound fraction; type: ADME, cell-free
[18] = biological target: Muscarinic acetylcholine receptor M1 (Rattus norvegicus) (UniProt P08482); assay: (§3) Antagonist activity at rat muscarinic M1 receptor by calcium mobilization assay; type: functional
[19] = biological target: Muscarinic acetylcholine receptor M2 (Rattus norvegicus) (UniProt P10980); assay: (§4) Antagonist activity at rat muscarinic M2 receptor by calcium mobilization assay; type: functional
Brain = assay: Protein binding in rat brain homogenate assessed as unbound fraction; type: ADME, tissue-based
Plasma [20] = assay: Protein binding in rat plasma assessed as unbound fraction; type: ADME, cell-free
Liver [21] = assay: Drug metabolism in human liver microsomes assessed as metabolite G formation in presence of NADPH by UV and mass spectrometry; type: ADME, microsome
Liver [22] = assay: Drug metabolism in human liver microsomes assessed as metabolite D formation in presence of NADPH by UV and mass spectrometry; type: ADME, microsome
[23] = biological target: Muscarinic acetylcholine receptor M1 (Rattus norvegicus) (UniProt P08482); assay: Antagonist activity at rat muscarinic M1 receptor assessed as acetylcholine-induced response by calcium mobilization assay; type: functional; parameters: scale not given: the % may be the effect or the level left
Homo sapiens [24] = species on record: Homo sapiens; assay: Selectivity index, ratio of IC50 for human recombinant muscarinic M1 receptor to IC50 for human recombinant muscarinic M4 receptor
Liver [25] = assay: Drug metabolism in human liver microsomes assessed as metabolite C formation in presence of NADPH by UV and mass spectrometry; type: ADME, microsome
Liver [26] = assay: Drug metabolism in rat liver microsomes in absence of NADPH by UV and mass spectrometry; type: ADME, microsome
Liver [27] = assay: Drug metabolism in human liver microsomes assessed as metabolite A formation in presence of NADPH by UV and mass spectrometry; type: ADME, microsome
[28] = biological target: Muscarinic acetylcholine receptor M4 (Rattus norvegicus, UniProt P08485); assay: as §1; type: functional
Plasma [29] = assay: Protein binding in rat plasma; type: ADME, cell-free
[30] = biological target: Muscarinic acetylcholine receptor M2 (Rattus norvegicus) (UniProt P10980); assay: Antagonist activity at rat muscarinic M2 receptor assessed as acetylcholine-induced response by calcium mobilization assay; type: functional; parameters: scale not given: the % may be the effect or the level left
Liver [31] = assay: Drug metabolism in human liver microsomes assessed as metabolite E formation in presence of NADPH by UV and mass spectrometry; type: ADME, microsome
[32] = biological target: Muscarinic acetylcholine receptor M2 and M4 (Homo sapiens) (UniProt P08173+P08172); assay: Selectivity index, ratio of IC50 for human recombinant muscarinic M2 receptor to IC50 for human recombinant muscarinic M4 receptor
Homo sapiens [33] = species on record: Homo sapiens; assay: Selectivity index, ratio of IC50 for human recombinant muscarinic M5 receptor to IC50 for human recombinant muscarinic M4 receptor
Liver [34] = assay: Drug metabolism in human liver microsomes assessed as metabolite F formation in presence of NADPH by UV and mass spectrometry; type: ADME, microsome
Liver [35] = assay: Drug metabolism in rat liver microsomes assessed as metabolite F formation in presence of NADPH by UV and mass spectrometry; type: ADME, microsome
[36] = biological target: Muscarinic acetylcholine receptor M3 (Rattus norvegicus, UniProt P08483); assay: as §2; type: functional
Plasma [37] = assay: Protein binding in human plasma; type: ADME, cell-free
[38] = biological target: Muscarinic acetylcholine receptor M1 (Rattus norvegicus, UniProt P08482); assay: as §3; type: functional
Liver [39] = assay: Drug metabolism in human liver microsomes assessed as metabolite H formation in presence of NADPH by UV and mass spectrometry; type: ADME, microsome
Liver [40] = assay: Drug metabolism in human liver microsomes assessed as metabolite B formation in presence of NADPH by UV and mass spectrometry; type: ADME, microsome
[41] = biological target: Muscarinic acetylcholine receptor M4 (Rattus norvegicus) (UniProt P08485); assay: Antagonist activity at rat muscarinic M4 receptor assessed as acetylcholine-induced response by calcium mobilization assay; type: functional; parameters: scale not given: the % may be the effect or the level left
Liver [42] = assay: Drug metabolism in human liver microsomes in absence of NADPH by UV and mass spectrometry; type: ADME, microsome
Homo sapiens [43] = species on record: Homo sapiens; assay: Selectivity index, ratio of IC50 for human recombinant muscarinic M3 receptor to IC50 for human recombinant muscarinic M4 receptor
[44] = biological target: Muscarinic acetylcholine receptor M2 (Rattus norvegicus, UniProt P10980); assay: as §4; type: functional
[45] = biological target: Muscarinic acetylcholine receptor M5 (Rattus norvegicus, UniProt P08911); assay: Antagonist activity at rat muscarinic M5 receptor by calcium mobilization assay; type: functional
[46] = biological target: Muscarinic acetylcholine receptor M3 (Rattus norvegicus) (UniProt P08483); assay: Antagonist activity at rat muscarinic M3 receptor assessed as acetylcholine-induced response by calcium mobilization assay; type: functional; parameters: scale not given: the % may be the effect or the level left

Muscarinic acetylcholine receptor M2 (Rattus norvegicus), sequence (P10980 whole entry): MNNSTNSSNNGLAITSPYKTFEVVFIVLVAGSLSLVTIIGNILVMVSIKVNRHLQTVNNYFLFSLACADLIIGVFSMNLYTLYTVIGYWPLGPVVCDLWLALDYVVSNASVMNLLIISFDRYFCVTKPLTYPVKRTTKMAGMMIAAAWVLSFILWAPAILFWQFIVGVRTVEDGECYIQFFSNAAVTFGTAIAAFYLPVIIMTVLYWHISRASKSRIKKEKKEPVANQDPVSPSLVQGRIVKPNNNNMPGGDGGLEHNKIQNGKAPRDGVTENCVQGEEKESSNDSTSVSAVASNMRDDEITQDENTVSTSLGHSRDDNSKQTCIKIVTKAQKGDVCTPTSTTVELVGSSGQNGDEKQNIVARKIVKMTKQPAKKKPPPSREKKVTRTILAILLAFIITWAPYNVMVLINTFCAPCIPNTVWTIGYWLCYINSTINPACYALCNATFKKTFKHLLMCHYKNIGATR
Muscarinic acetylcholine receptor M2 (Homo sapiens, UniProt P08172), sequence (P08172 whole entry): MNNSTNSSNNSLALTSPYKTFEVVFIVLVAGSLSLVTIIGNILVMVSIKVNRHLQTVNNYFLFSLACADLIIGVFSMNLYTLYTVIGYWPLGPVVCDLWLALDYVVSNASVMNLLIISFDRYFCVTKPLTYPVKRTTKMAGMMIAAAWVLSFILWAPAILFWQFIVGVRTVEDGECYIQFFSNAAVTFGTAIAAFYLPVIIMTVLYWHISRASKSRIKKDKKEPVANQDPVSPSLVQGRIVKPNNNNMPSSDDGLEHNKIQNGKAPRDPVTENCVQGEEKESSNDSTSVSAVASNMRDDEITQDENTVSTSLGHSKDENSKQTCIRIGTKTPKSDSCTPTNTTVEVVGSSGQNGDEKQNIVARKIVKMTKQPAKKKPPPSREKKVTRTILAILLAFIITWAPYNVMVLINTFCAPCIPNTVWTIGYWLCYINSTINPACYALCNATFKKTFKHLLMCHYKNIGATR
Muscarinic acetylcholine receptor M2 (Homo sapiens), sequence (P08172 whole entry): as above
Muscarinic acetylcholine receptor M1 (Homo sapiens), sequence (P11229 whole entry): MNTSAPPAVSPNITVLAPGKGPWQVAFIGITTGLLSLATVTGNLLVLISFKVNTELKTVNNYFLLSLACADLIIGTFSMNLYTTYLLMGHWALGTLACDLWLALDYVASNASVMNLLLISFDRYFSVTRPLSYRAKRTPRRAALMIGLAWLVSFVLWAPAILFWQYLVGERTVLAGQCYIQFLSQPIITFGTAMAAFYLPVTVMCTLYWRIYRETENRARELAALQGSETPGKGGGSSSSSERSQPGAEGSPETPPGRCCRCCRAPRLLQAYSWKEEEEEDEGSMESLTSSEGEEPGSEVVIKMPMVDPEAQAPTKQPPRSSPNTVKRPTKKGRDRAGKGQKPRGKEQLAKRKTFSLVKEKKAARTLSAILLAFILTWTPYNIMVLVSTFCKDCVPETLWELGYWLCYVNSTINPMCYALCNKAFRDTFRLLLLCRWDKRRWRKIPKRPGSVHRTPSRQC
Muscarinic acetylcholine receptor M1 (Homo sapiens, UniProt P11229), sequence (P11229 whole entry): as above
Muscarinic acetylcholine receptor M1 (Rattus norvegicus), sequence (P08482 whole entry): as the sequence (P11229 whole entry) above, with A5V, T254S, P309S, R320K, A337G, I413V counted along it
Muscarinic acetylcholine receptor M3 (Rattus norvegicus), sequence (P08483 whole entry, looked up): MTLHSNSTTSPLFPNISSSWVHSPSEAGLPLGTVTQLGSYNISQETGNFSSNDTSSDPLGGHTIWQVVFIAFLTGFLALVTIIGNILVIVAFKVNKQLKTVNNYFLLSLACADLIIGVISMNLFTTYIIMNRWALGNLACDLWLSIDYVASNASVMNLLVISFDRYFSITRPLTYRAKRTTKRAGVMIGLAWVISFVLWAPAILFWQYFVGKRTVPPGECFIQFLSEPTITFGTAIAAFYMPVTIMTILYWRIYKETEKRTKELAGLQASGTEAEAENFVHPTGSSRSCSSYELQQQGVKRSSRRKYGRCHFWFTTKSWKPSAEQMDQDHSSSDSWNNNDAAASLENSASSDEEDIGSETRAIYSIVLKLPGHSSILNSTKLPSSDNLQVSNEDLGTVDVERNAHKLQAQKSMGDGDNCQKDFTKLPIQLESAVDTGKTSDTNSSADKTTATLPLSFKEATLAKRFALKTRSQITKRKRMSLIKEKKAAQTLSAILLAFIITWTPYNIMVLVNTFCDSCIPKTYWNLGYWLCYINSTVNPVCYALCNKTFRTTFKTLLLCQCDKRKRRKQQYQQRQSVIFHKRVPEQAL

- Activity [1]: 12%
- Activity [2]: 55%
- IC50 [3]: 288 nM
- inhibition [4]: Active
- IC50 [5]: 352 nM
- IC50 ([6]; read-out: IC50): 120 nM
- IC50 ([6]; read-out: pIC50 (converted)): 110 nM
- IC50 [7]: 0.782 µM
- Activity [8]: 43%
- Activity [9]: 17%
- inhibition [10]: Active
- Activity [11]: 11%
- inhibition [12]: Active
- Kp [13]: 2.1
- IC50 [14]: 1.03 µM
- Ki [15]: 7.78 nM
- K(p,uu,brain) [16]: 1.1
- Fu (Plasma [17]): 0.08
- inhibition [18]: Active
- inhibition [19]: Active
- Fu (Brain): 0.04
- Fu (Plasma [20]): 0.07
Compound: Cc1noc(C)c1S(=O)(=O)N1CCN(c2ccc(N3CCCC(C)(C)C3)nn2)CC1

- Drug metabolism (Liver [21]): Metabolite_Detected
- Activity [1]: 4%
- Drug metabolism (Liver [22]): Metabolite_Detected
- Activity [23]: 2.6%
- Ratio IC50 (Homo sapiens [24]): 2.7 to 16
- Activity [2]: 4.3%
- Drug metabolism (Liver [25]): Metabolite_Detected
- Drug metabolism (Liver [26]): Metabolite_Notdetected
- Drug metabolism (Liver [27]): Metabolite_Detected
- IC50 [3]: 1300 nM
- IC50 [28]: 1000 nM
- IC50 [5]: 1200 nM
- PPB (Plasma [29]): Active
- Activity [30]: 7.1%
- IC50 ([6]; read-out: IC50): 440 nM
- IC50 ([6]; read-out: pIC50 (converted)): 427 nM
- IC50 [7]: 7 µM
- Activity [8]: 3.1%
- Drug metabolism (Liver [31]): Metabolite_Detected
- Activity [9]: 2.9%
- Ratio IC50 [32]: 2.7 to 16
- Activity [10]: 37%
- Ratio IC50 (Homo sapiens [33]): 2.7 to 16
- Drug metabolism (Liver [34]): Metabolite_Detected
- Drug metabolism (Liver [35]): Metabolite_Detected
- Activity [11]: 2.8%
- IC50 [36]: > 10 µM
- IC50 [14]: 6.5 µM
- PPB (Plasma [37]): Active
- IC50 [38]: 1400 nM
- Drug metabolism (Liver [39]): Metabolite_Detected
- Drug metabolism (Liver [40]): Metabolite_Detected
- Activity [41]: 4.8%
- Drug metabolism (Liver [42]): Metabolite_Notdetected
- Ratio IC50 (Homo sapiens [43]): 2.7 to 16
- IC50 [44]: 5.9 µM
- IC50 [45]: > 10 µM
- Activity [46]: 40%
Compound: C[C@H]1CCCCN1c1ccc(N2CCN(S(=O)(=O)c3ccccc3Cl)CC2)nn1
